Assay results as given in patent US20090233796A1, “HERBICIDAL COMPOSITION” (SYNGENTA CROP PROTECTION, INC., priority 2004, published 2009).

Experiments:
Assay type in all cases: in vivo
Brachiaria = test: Compound (A) with prosulfuron, weed plots; settings: 13 DAA, No. 3.27
Experimental: (§1) In these tests, various weeds were treated with prosulfinuron alone at a rate equivalent to 35 g per hectare, […] and Compound (A) at rates equivalent to the sum of these. The compositions were formulated as an emulsifiable concentrate (EC).
(§2) The results in the tables under each application are the percentage of the plants that were killed.

Veronica = test: Compound (A) with prosulfuron, weed plots; settings: 13 DAA, No. 3.25
Experimental: as §1, §2

Euphorbia = test: Compound (A) with prosulfuron, weed plots; settings: 13 DAA, No. 3.28
Experimental: as §1, §2

Rice = test: Compound (A) with prosulfuron, weed plots; settings: 13 DAA, No. 3.29
Experimental: as §1, §2

Wheat = test: Compound (A) with prosulfuron, weed plots; settings: 13 DAA, No. 3.30
Experimental: as §1, §2

COMMELINA SP. = test: Compound (A) with nicosulfuron, weed plots
Excerpt: In these tests, […] and Compound (A) at rates equivalent to the sum of these. The compositions were formulated as an emulsifyable concentrate (EC).
(§3) The results in the table under each application are the percentage of the plants that were killed.

ABUTILON THEOPHRASTI = test: Compound (A) with S-metolachlor, weed plots
Excerpt: […] The compositions were formulated as an emulsifyable concentrate (EC).
as §3

DIGITARIA SANGUINALIS = test: Compound (A) with glyphosate, weed plots; settings: 52 DAA, No. 2.2
Excerpt: (§4) The compositions were formulated as an emulsifyable concentrate (EC).
as §3

CYPERUS ROTUNDUS = test: Compound (A) with glyphosate, weed plots; settings: 2 DAA, No. 2.5
Excerpt: as §4, §3

HORDEUM PUSILLUM = test: Compound (A) with glyphosate, weed plots; settings: 13 DAA, No. 2.6
Excerpt: as §4, §3

CYNODON DACTYLON = test: Compound (A) with glyphosate, weed plots; settings: 82 DAA, No. 2.1
Excerpt: as §4, §3

CYPERUS SP. = test: Compound (A) with glyphosate, weed plots
Excerpt: as §4, §3

AMBROSIA TRIFIDA = test: Compound (A) with S-metolachlor, weed plots
Experimental: (§5) In these tests, various weeds were treated with S-metolachlor (SMOC) alone at an application rate equivalent to 1420 g per hectare, Compound (A) alone at rates equivalent to 20 g per hectare and […] and with mixtures of S-metolachlor and the Compound (A) at rates equivalent to the sum of these. The compositions were formulated as an emulsifyable concentrate (EC).
as §3

SESBANIA EXALTATA = test: Compound (A) with S-metolachlor, weed plots; settings: 56 DAA, Trial 4.2
Experimental: as §5, §3

POLYGONUM PENSYLVANICUM = test: Compound (A) with S-metolachlor, weed plots; settings: 56 DAA, Trial 4.14
Experimental: as §5, §3

AMBROSIA ARTEMISIIFOLIA = test: Compound (A) with S-metolachlor, weed plots
Experimental: as §5, §3

C[…] = test: Compound (A) with S-metolachlor, weed plots
Experimental: as §5, §3

E[…]-GALLI = test: Compound (A) with S-metolachlor, weed plots; settings: 28 DAA, Trial 4.1
Experimental: as §5, §3

XANTHIUM STRUMARIUM = test: Compound (A) with S-metolachlor, weed plots
Experimental: as §5, §3

IPOMOEA SP. = test: Compound (A) with S-metolachlor, weed plots
Experimental: as §5, §3

## CCOC(=O)COc1ncccc1Oc1cc(-n2c(=O)cc(C(F)(F)F)n(C)c2=O)c(F)cc1Cl [Compound (A)]
Brachiaria; 1.25 g/ha
  percentage of the plants that were killed: 50%
Brachiaria; 2.5 g/ha
  percentage of the plants that were killed: 60%
Brachiaria; 5 g/ha
  percentage of the plants that were killed: 98%
Veronica; 1.25 g/ha
  percentage of the plants that were killed: 80%
Veronica; 2.5 g/ha
  percentage of the plants that were killed: 100%
Veronica; 5 g/ha
  percentage of the plants that were killed: 100%
Euphorbia; 1.25 g/ha
  percentage of the plants that were killed: 50%
Euphorbia; 2.5 g/ha
  percentage of the plants that were killed: 70%
Euphorbia; 5 g/ha
  percentage of the plants that were killed: 70%
Rice; 1.25 g/ha
  percentage of the plants that were killed: 50%
Rice; 2.5 g/ha
  percentage of the plants that were killed: 70%
Rice; 5 g/ha
  percentage of the plants that were killed: 90%
Wheat; 1.25 g/ha
  percentage of the plants that were killed: 80%
Wheat; 2.5 g/ha
  percentage of the plants that were killed: 95%
Wheat; 5 g/ha
  percentage of the plants that were killed: 100%
COMMELINA SP.; 5 g/ha, 10 DAA, No. 3.18
  percentage of the plants that were killed: 30%
COMMELINA SP.; 5 g/ha, 17 DAA, No. 3.19
  percentage of the plants that were killed: 20%
COMMELINA SP.; 10 g/ha, 10 DAA, No. 3.18
  percentage of the plants that were killed: 50%
COMMELINA SP.; 10 g/ha, 17 DAA, No. 3.19
  percentage of the plants that were killed: 30%
COMMELINA SP.; 20 g/ha, 10 DAA, No. 3.18
  percentage of the plants that were killed: 58%
COMMELINA SP.; 20 g/ha, 17 DAA, No. 3.19
  percentage of the plants that were killed: 50%
ABUTILON THEOPHRASTI; 20 g/ha, 15 DAA, Trial 4.12
  percentage of the plants that were killed: 25%
ABUTILON THEOPHRASTI; 20 g/ha, 23 DAA, Trial 4.3
  percentage of the plants that were killed: 43%
ABUTILON THEOPHRASTI; 20 g/ha, 38 DAA, Trial 4.4
  percentage of the plants that were killed: 35%
ABUTILON THEOPHRASTI; 20 g/ha, 56 DAA, Trial 4.13
  percentage of the plants that were killed: 0%
ABUTILON THEOPHRASTI; 40 g/ha, 15 DAA, Trial 4.12
  percentage of the plants that were killed: 88%
ABUTILON THEOPHRASTI; 40 g/ha, 23 DAA, Trial 4.3
  percentage of the plants that were killed: 78%
ABUTILON THEOPHRASTI; 40 g/ha, 38 DAA, Trial 4.4
  percentage of the plants that were killed: 70%
ABUTILON THEOPHRASTI; 40 g/ha, 56 DAA, Trial 4.13
  percentage of the plants that were killed: 13%
DIGITARIA SANGUINALIS; 10 g/ha
  percentage of the plants that were killed: 0%
DIGITARIA SANGUINALIS; 20 g/ha
  percentage of the plants that were killed: 0%
CYPERUS ROTUNDUS; 10 g/ha
  percentage of the plants that were killed: 40%
CYPERUS ROTUNDUS; 20 g/ha
  percentage of the plants that were killed: 75%
HORDEUM PUSILLUM; 10 g/ha
  percentage of the plants that were killed: 60%
HORDEUM PUSILLUM; 20 g/ha
  percentage of the plants that were killed: 70%
CYNODON DACTYLON; 10 g/ha
  percentage of the plants that were killed: 0%
CYNODON DACTYLON; 20 g/ha
  percentage of the plants that were killed: 0%
CYPERUS SP.; 10 g/ha, 1 DAA, No. 2.3
  percentage of the plants that were killed: 0%
CYPERUS SP.; 10 g/ha, 52 DAA, No. 2.4
  percentage of the plants that were killed: 0%
CYPERUS SP.; 20 g/ha, 1 DAA, No. 2.3
  percentage of the plants that were killed: 0%
CYPERUS SP.; 20 g/ha, 52 DAA, No. 2.4
  percentage of the plants that were killed: 0%
AMBROSIA TRIFIDA; 20 g/ha, 8 DAA, Trial 4.16
  percentage of the plants that were killed: 75%
AMBROSIA TRIFIDA; 20 g/ha, 42 DAA, Trial 4.15
  percentage of the plants that were killed: 23%
AMBROSIA TRIFIDA; 40 g/ha, 8 DAA, Trial 4.16
  percentage of the plants that were killed: 95%
AMBROSIA TRIFIDA; 40 g/ha, 42 DAA, Trial 4.15
  percentage of the plants that were killed: 38%
SESBANIA EXALTATA; 20 g/ha
  percentage of the plants that were killed: 50%
SESBANIA EXALTATA; 40 g/ha
  percentage of the plants that were killed: 25%
POLYGONUM PENSYLVANICUM; 20 g/ha
  percentage of the plants that were killed: 0%
POLYGONUM PENSYLVANICUM; 40 g/ha
  percentage of the plants that were killed: 13%
AMBROSIA ARTEMISIIFOLIA; 20 g/ha, 25 DAA, Trial 4.7
  percentage of the plants that were killed: 47%
AMBROSIA ARTEMISIIFOLIA; 20 g/ha, 49 DAA, Trial 4.8
  percentage of the plants that were killed: 30%
AMBROSIA ARTEMISIIFOLIA; 40 g/ha, 25 DAA, Trial 4.7
  percentage of the plants that were killed: 79%
AMBROSIA ARTEMISIIFOLIA; 40 g/ha, 49 DAA, Trial 4.8
  percentage of the plants that were killed: 69%
C[…]; 20 g/ha, 26 DAA, Trial 4.5
  percentage of the plants that were killed: 80%
C[…]; 20 g/ha, 54 DAA, Trial 4.6
  percentage of the plants that were killed: 0%
C[…]; 20 g/ha, 56 DAA, Trial 4.11
  percentage of the plants that were killed: 0%
C[…]; 40 g/ha, 26 DAA, Trial 4.5
  percentage of the plants that were killed: 80%
C[…]; 40 g/ha, 54 DAA, Trial 4.6
  percentage of the plants that were killed: 44%
C[…]; 40 g/ha, 56 DAA, Trial 4.11
  percentage of the plants that were killed: 13%
E[…]-GALLI; 20 g/ha
  percentage of the plants that were killed: 53%
E[…]-GALLI; 40 g/ha
  percentage of the plants that were killed: 55%
XANTHIUM STRUMARIUM; 20 g/ha, 26 DAA, Trial 4.17
  percentage of the plants that were killed: 25%
XANTHIUM STRUMARIUM; 20 g/ha, 42 DAA, Trial 4.18
  percentage of the plants that were killed: 23%
XANTHIUM STRUMARIUM; 40 g/ha, 26 DAA, Trial 4.17
  percentage of the plants that were killed: 73%
XANTHIUM STRUMARIUM; 40 g/ha, 42 DAA, Trial 4.18
  percentage of the plants that were killed: 68%
IPOMOEA SP.; 20 g/ha, 25 DAA, Trial 4.9
  percentage of the plants that were killed: 35%
IPOMOEA SP.; 20 g/ha, 49 DAA, Trial 4.10
  percentage of the plants that were killed: 20%
IPOMOEA SP.; 40 g/ha, 25 DAA, Trial 4.9
  percentage of the plants that were killed: 65%
IPOMOEA SP.; 40 g/ha, 49 DAA, Trial 4.10
  percentage of the plants that were killed: 60%
